The text below walks through data of patent publication US11160814B1, “Methods of treatment for disease from coronavirus exposure” (Ensemble Group Holdings, priority 2020, dated 2021).

This assay concerns SARS-CoV-2. Put plainly: Pirfenidone and nintedanib therapy during post-acute phase in patients with severe SARS2 lung damage (Example 3). The assay is classed as in vivo, human. As to conditions: one patient. From the text:
Pirfenidone and Nintedanib therapy during the post-acute phase mitigates functional and structural lung loss, preserves lung function and structure, and can improve lung capacity and exertional tolerance in patients previously infected SARS2 with significant pulmonary functional and structural loss as a result of their severe infections. This transition period can be determined in any number of ways including but not limited to laboratory, blood serum, urine, fecal, sputum, bronchial lavage, imaging, genomic or tissue-based testing. These patients can also be characterized in one embodiment as those patients with prolonged hospitalization due to lung disease, prolonged ventilation, course of ECMO, high peaks during hospitalization 1.5 times above the upper of normal for LDH, or Ferritin, or CRP, >30% loss in pulmonary capacity or pulmonary reserve, significant scarring and/or fibrosis seen by CT imaging, MRI, PET imaging or chest x-ray, significant reductions in physiological and functional measures as assessed by the objective physiologic and functional assessments described above, and/or a progressive or worsening pattern of any of such measures over time. During this period, pharmacologic agents and combinations as disclosed herein can be administered to limit, contain, or restrain or reduce such damage and limit the progression of severe SARS2 associated lung damage as described above both physiologically functionally and structurally. A patient with severe clinical COVID symptoms and severe lung damage, and >40% loss of pulmonary reserve by objective testing was treated with pirfenidone starting 1 month after discharge. […] A similar patient was treated with a 50% loss of pulmonary reserve.

Setting [1] is: severe COVID, >40% loss of pulmonary reserve, treatment from 1 month after discharge, at 3 months.

In the case of `COC(=O)c1ccc2c(c1)NC(=O)/C2=C(\Nc1ccc(N(C)C(=O)CN2CCN(C)CC2)cc1)c1ccccc1` [nintedanib], the “structural and physiologic declines” value (50% loss of pulmonary reserve, initiated two months post-discharge, at 4 months) was “stabilized and arrested”.
Take `Cc1ccc(=O)n(-c2ccccc2)c1` [pirfenidone]: under setting [1], the PFTs result is on record as “improvement” and the “progression of structural lung damage by high-resolution CT (HRCT) imaging” value is listed as “reduction in progression”.
